Data set [1] concerns SCAT and VAT gene expression. The data set can be described thus: cDNA microarray of visceral and subcutaneous adipose tissue of high fat diet fed mice treated with rimonabant. The class given is in vivo. Particulars: C57BL/6J mice, 6 months HFD, then one month rimonabant 10 mg/kg/day; genes up-regulated by HFD (Plac8 and Rp9h down-regulated). An excerpt:
C57BL/6J mice, which are obesity-prone (Collins et al. 2004), were fed for 6 months with a high fat diet (HFD).
RNA from 5 different mice per group was extracted from visceral and subcutaneous adipose tissues using peqGOLD Trifast™ (peqlab) and chloroform-isoamylalcool (24:1) extraction. RNA was precipitated with isopropanol and purified by passage over RNeasy columns (Qiagen). RNA quality was checked before and after amplification with a Bioanalyzer 2100 (Agilent). RNA was reverse transcribed and RNA was amplified with MessageAmp™ kit (Ambion). A Mouse Universal Reference (Clontech) was similarly amplified and both adipose tissue and reference RNAs were labeled by an indirect technique with Cy5 and Cy3 according to published protocols (De Fourmestraux et al., 2004). Labeled RNAs were hybridized to microarrays containing 17664 cDNAs prepared at the DNA Array Facility of the University of Lausanne. Scanning, image, and quality control analyses were performed as previously published (de Fourmestraux et al., J. Biol. Chem. 2004 279:50743-53). Data were expressed as log2 intensity ratios (Cy5/Cy3), normalized with a print tip locally weighted linear regression (Lowess) method and filtered based on spot quality and incomplete annotation. All analyses were performed with the R software for statistical computing available at the Comprehensive R Archive Network (cran.us.r-project.org/).

The test system of another data set is Plac8. The data set can be described thus: Retroviral transduction of 3T3-L1 cells with shRNA, Plac8 mRNA by RT-PCR. The class given is cell-based, mouse. To be noted: 3T3-L1 cells infected 6 hours with retroviral vectors, day 0 prior differentiation, RT-PCR (FIG. 3B). The procedure:
3T3-L1 cells were cultured in DMEM (Gibco) with 10% FBS (Gibco) at 5% CO2. After retroviral infection (see below), cells were allow to grow to confluence in either 100-mm or 60-mm dishes in DMEM with 10% FBS. Once confluence was reached, cells were exposed to differentiation medium containing dexamethasone (1 μM), insulin (5 μg/ml), and isobutylmethylxanthine ([…]) (DMI). After 2 days cells were maintained in medium containing insulin (5 μg/ml) until ready for harvest at 7 days.
Retroviruses were constructed in the RNAi-Ready pSIREN-RetroQ ZsGreen (pSIREN Clontech) or pMSCV puromycin plasmid (pMSCV, Clontech). Viral constructs were transfected using calcium-phosphate method described in Jordan, M., et al. (2004) into 293 HEK packaging cells along with constructs encoding gag-pol and the VSV-G protein. Supernatants were harvested after 48 h in presence of […] of Trichostatin A (Sigma) and either used immediately or snap frozen and stored at −80° C. for later use. Viral supernatants were added to the cells for 6 hours in the presence of polybrene (4 μg/ml) and diluted two times with fresh medium for the next 15 hours.
Total RNA was isolated from cultured cells using peqGOLD TriFast reagent according to the manufacturer's instructions (Axonlab). First strand cDNA was synthesized from 0.5 μg of total RNA using random primers and Superscript II (Invitrogen). […]

As for `Cc1c(C(=O)NN2CCCCC2)nn(-c2ccc(Cl)cc2Cl)c1-c1ccc(Cl)cc1` [rimonabant], the “expression of 34 gene candidates regulated by HFD in SCAT and VAT” value in data set [1] is “normalized”.

B1: shLuc: negative control siRNA sequence against luciferase, SEQ ID NO. 8 (nucleic acid)
chain: GATCCGTGCGTTGCTAGTACCAATTCAAGAGATTGGTACTAGCAACGCACTTTTTTACGCGTG
modifications: listed as DNA, chemistry not fully specified
Regarding B1, the “knockdown for Plac8 (mRNA)” value in the data set with Plac8 is given as “no inhibition”.

The record behind these values is patent US20120035241A1, “USE OF INHIBITORS OF PLAC8 ACTIVITY FOR THE MODULATION OF ADIPOGENESIS” (SANOFI-AVENTIS, priority 2008, published 2012).
